The record followed here is patent US5585382A, “Polycyclic and heterocyclic chromophores for bis-imide tumoricidals” (The DuPont Merck Pharmaceutical Company, priority 1995, dated 1996).

The structures appear in SMILES notation. Converted amounts (≈) assume the structure as drawn. Where two headings read alike, the source gives them in different places.

The test system of data set [1] is Murine leukemia L1210 cells. The data set can be described thus: In vitro growth inhibition of L1210 cells (MTT, 72 hr). In kind it is cell-based. The conditions noted are these: Mus musculus, read-out: L1210 IC50. How it is done: (§1) The reagents for tissue culture were purchased from GIBCO (Grand Island, N.Y.). 5-Dimethylthiazol-2-yl)-2,5-diphenyl tetrazolium bromide (MTT) was purchased from Sigma Chemical Company (St. Louis, Mo.). All agents were prepared as 2 mg/ml stock solutions in DMSO. MTT was prepared as a 1 mg/ml stock solution in Dulbecco's phosphate buffered saline (PBS). All stocks were stored frozen in the dark at -20° C.
(§2) Clone A human colon cancer cells were isolated from the heterogeneous DLD-1 colon tumor line and maintained as previously described (Dexter, D. L.; Barbosa, J. A.; Calabresi, P. Cancer Research 1979, 39, 1020; Dexter, D. L.; Spremulli, E. M.; Fligiel, A.; Barbosa, J. A.; Vogel, R.; Van Vorhees, A.; Calabresi, P. Am. J. Med. 1981, 71, 949.). Murine leukemia L1210 cells were maintained in RPMI-L medium as described (Chen, S.-F.; Ruben, R. L.; Dexter, D. L. Cancer Research 1986, 46, 5014.). All cell lines were incubated at 37° C. in a humidified atmosphere of 5% CO2 -95% air.
(§3) Exponentially growing L1210 cells (1×10^3), or Clone A cells (8×10^2) in 0.1 ml medium were seeded in a 96-well microtiter plate on day 0. On day one, 0.1 ml aliquots of medium containing graded concentrations of test compounds were added to the cell plates. After incubation at 37° C. in a humidified incubator for 72 hr, the plates containing L1210 cells were centrifuged briefly and 100 μl of the growth medium was removed. Cell cultures were incubated with 50 μl of MTT for 4 h at 37° C. (12). The resulting purple formazan precipitate was solubilized with 200 μl of 0.04 N HCl in isopropyl alcohol. Absorbance was read in a Titertek Multiskan MCC scanning well spectrophotometer (Flow Laboratories) at a test wavelength of 570 nm and a reference wavelength of 630 nm. The absorbances were stored on a floppy disk on an IBM-XT and uploaded onto a VAX computer. IC50 values were determined by a computer program that fit the data to the following equation:
(§4) Y=((Am -Ao)/(1+(X/IC50)^n))+Ao
(§5) where Am =absorbance of the control cells; Ao =absorbance of the cells in the presence of highest compound concentration; Y=observed absorbance; X=compound concentration; IC50 =dose of compound that inhibits the number of population doublings of cells to one half that of the number of population doublings of the control cells; and n equals the slope of the straight portion of the curve.
(§6) The values reported in the table are from at least one experiment performed in eight replicates. If more than one experiment was performed, the number reported is the average of all the trials

A short description of data set [2]: Solubility in water.
Data set [3] deals with Clone A human colon cancer cells. The experiment in a line: In vitro growth inhibition of Clone A cells (MTT, 72 hr). It is filed as cell-based. The conditions noted are these: read-out: Clone A IC50. How it is done: as §1, §2, §3, §4, §5, §6

In the case of `CS(=O)(=O)O.O=C1c2cccc3c2c(cc2ccccc23)C(=O)N1CCCCNCCCN1C(=O)c2cccc3c2c(cc2ccccc23)C1=O` [Example 40, 4-[3-(Phenanthrene-1, 10-dicarboximido)propylamino]-1-(phenanthrene-1, 10-dicarboximido) butane Hydromethanesulfonate], the IC50 in data set [1] (L1210, 72 h) turned out to be 0.098 µg/mL; in data set [3] (72 h), 0.412 µg/mL. The same compound returned a solubility in data set [2] of 60 µg/mL.

As to `CS(=O)(=O)O.Cc1ccc2c(C)c3c4c(cccc4c2c1)C(=O)N(CCCCNCCCN1C(=O)c2cccc4c2c(c(C)c2ccc(C)cc24)C1=O)C3=O` [Example 46, 4-[3-(6,9-Dimethylphenanthrene-1,10-dicarboximido)propylamino]-1-(6,9-dimethylphenanthrene-1, 10-dicarboximido)butane Hydromethanesulfonate], the concentration for half-maximal inhibition (IC50) in data set [1] (L1210, 72 h) amounted to 0.414 µg/mL; in data set [3] (72 h) it was 0.958 µg/mL. Further, in data set [2], the solubility worked out at 40 µg/mL.

Regarding `CS(=O)(=O)O.O=C1c2cccc3c2c(cc2ccoc23)C(=O)N1CCCCNCCCN1C(=O)c2cccc3c2c(cc2ccoc23)C1=O` [Example 80, 4-[3-(Naphtho[1,2-b]furan-5,6-dicarboximido)propylamino]-1-(naphtho[1,2-b]furan-5,6-dicarboximido)butane Hydromethanesulfonate], the IC50 in data set [1] (L1210 cells, 72 hr, MTT) turned out to be 0.389 µg/mL; in data set [3] (Clone A cells, 72 hr, MTT) it was 0.635 µg/mL. The compound also gave a solubility in data set [2] of 420 µg/mL.

For `CS(=O)(=O)O.O=C1c2cccc3c2c(cc2ccc(C(F)(F)F)cc23)C(=O)N1CCCCNCCCN1C(=O)c2cccc3c2c(cc2ccc(C(F)(F)F)cc23)C1=O` [Example 44, 4-(3-[6-(Trifluoromethyl)phenanthrene-1,10-dicarboximido]propylamino)-1-[6-(trifluoromethyl)phenanthrene-1, 10dicarboximido]butane Hydromethanesulfonate], the IC50 was 0.888 µg/mL in data set [1] (L1210, 72 h) and 1.01 µg/mL in data set [3] (72 h). This compound also came in with a solubility in data set [2] of 270 µg/mL.

In the case of `CS(=O)(=O)O.Cc1nc2cc3c4c(cccc4c2s1)C(=O)N(CCCCNCCCN1C(=O)c2cccc4c2c(cc2nc(C)sc24)C1=O)C3=O` [Example 82, 4-[3-(2-Methylnaphtho[2,1-d]thiazole-5,6-dicarboximido)propylamino]-1-(2-methylnaphtho[2,1-d]thiazole-5,6-dicarboximido)butane Hydromethanesulfonate], the 50% inhibitory concentration (IC50) in data set [1] (L1210 cells, 72 hr, MTT) was 0.082 µg/mL; in data set [3] (Clone A cells, 72 hr, MTT), 0.068 µg/mL. The solubility in data set [2] came out at 4500 µg/mL.

As to `CCc1ccc2cc3c4c(cccc4c2c1)C(=O)N(CCCCNCCCN1C(=O)c2cccc4c2c(cc2ccc(CC)cc24)C1=O)C3=O.CS(=O)(=O)O` [Example 47, 4-[3-(6-Ethylphenanthrene-1, 10-dicarboximido)propylamino]-1-(6-ethylphenanthrene-1, 10-dicarboximido)butane Hydromethanesulfonate], the IC50 was 0.378 µg/mL in data set [1] (L1210, 72 h) and 0.763 µg/mL in data set [3] (72 h). In addition, the solubility in data set [2] is 150 µg/mL.

Take `CC[C@H](CNCCNC[C@@H](CC)N1C(=O)c2cc([N+](=O)[O-])cc3c2c(cc2cc(C)cnc23)C1=O)N1C(=O)c2cc([N+](=O)[O-])cc3c2c(cc2cc(C)cnc23)C1=O` [Example 24]: the 50% inhibitory concentration (IC50) worked out at 0.13 µg/mL (≈ 0.166 µM) in data set [1] (L1210 cells, 72 hr, MTT) and 0.022 µg/mL (≈ 0.0281 µM) in data set [3] (Clone A cells, 72 hr, MTT). This compound gave a solubility in data set [2] of 150 µg/mL (≈ 192 µM).

As to `O=C1c2cccc3c2c(cc2cnccc23)C(=O)N1CCCCNCCCN1C(=O)c2cccc3c2c(cc2cnccc23)C1=O` [Example 15, 4-[3-(7-Azaphenanthrene-1,10-dicarboximido)propylamino]-1-(7-azaphenanthrene-1,10dicarboximido) butane 2.5-Hydromethanesulfonate], the IC50 in data set [1] (L1210 cells, 72 hr, MTT) was 0.002 µg/mL (≈ 0.00329 µM); in data set [3] (Clone A cells, 72 hr, MTT) it was 0.002 µg/mL (≈ 0.00329 µM). Also, the solubility in data set [2] was 810 µg/mL (≈ 1330 µM).

In the case of `CS(=O)(=O)O.Cc1c2c3c(cccc3c3ccccc13)C(=O)N(CCCCNCCCN1C(=O)c3cccc4c3c(c(C)c3ccccc34)C1=O)C2=O` [Example 43, 4-[3-(9-Methylphenanthrene-1,10-dicarboximido)propylamino]-1-(9-methylphenanthrene-1, 10-dicarboximido)butane Hydromethanesulfonate], the 50% inhibitory concentration (IC50) amounted to 0.357 µg/mL in data set [1] (L1210, 72 h) and 0.4 µg/mL in data set [3] (72 h). This compound also displayed a solubility in data set [2] of 40 µg/mL.

In the case of `CS(=O)(=O)O.Cc1cccc2c1cc1c3c(cccc32)C(=O)N(CCCCNCCCN2C(=O)c3cccc4c3c(cc3c(C)cccc34)C2=O)C1=O` [Example 42, 4-[3-(8-Methylphenanthrene-1,10-dicarboximido)propylamino]-1-(8-methylphenanthrene-1, 10-dicarboximido)butane Hydromethanesulfonate], the concentration for half-maximal inhibition (IC50) in data set [1] (L1210, 72 h) was 0.137 µg/mL; in data set [3] (72 h) it was 0.271 µg/mL. In data set [2], this compound came in with a solubility of 60 µg/mL.

With `CS(=O)(=O)O.CS(=O)(=O)O.CS(=O)(=O)O.Nc1cc2c3c(cc4cccnc4c3c1)C(=O)N(CCCCNCCCN1C(=O)c3cc(N)cc4c3c(cc3cccnc34)C1=O)C2=O` [Example 9, 4-[3-(3-Amino-5-azaphenanthrene-1,10-dicarboximido)propylamino]-1-(3-amino-5-azaphenanthrene-1, 10-dicarboximido)butane Trihydromethanesulfonate], the IC50 was determined as 0.182 µg/mL in data set [1] (L1210 cells, 72 hr, MTT) and 0.166 µg/mL in data set [3] (Clone A cells, 72 hr, MTT). The solubility in data set [2] came out at 11000 µg/mL.

On to `C[C@H](CNC[C@@H](C)N1C(=O)c2cc([N+](=O)[O-])cc3c2c(cc2cccnc23)C1=O)NC[C@@H](C)N1C(=O)c2cc([N+](=O)[O-])cc3c2c(cc2cccnc23)C1=O` [Example 21], for which the IC50 in data set [1] (L1210 cells, 72 hr, MTT) is 0.042 µg/mL (≈ 0.0567 µM); in data set [3] (Clone A cells, 72 hr, MTT), 0.005 µg/mL (≈ 0.00675 µM). In addition, the solubility in data set [2] is 7700 µg/mL (≈ 10400 µM).

Turning to `CS(=O)(=O)O.Cc1cnc2c(c1)cc1c3c(cccc32)C(=O)N(CCCCNCCCN2C(=O)c3cccc4c3c(cc3cc(C)cnc34)C2=O)C1=O` [Example 10, 4-[3-(7-Methyl-5-azaphenanthrene-1,10-dicarboximido)propylamino]-1-(7-methyl-5-azaphenanthrene-1, 10-dicarboximido)butane Hydromethanesulfonate], the IC50 was 0.588 µg/mL in data set [1] (L1210 cells, 72 hr, MTT) and 0.346 µg/mL in data set [3] (Clone A cells, 72 hr, MTT).

On to `C[C@H](CNCCNC[C@@H](C)N1C(=O)c2cccc3c2c(cc2ccc(C(F)(F)F)cc23)C1=O)N1C(=O)c2cccc3cc([N+](=O)[O-])cc(c23)C1=O` [Example 121], for which the IC50 in data set [1] (L1210, 72 h) stood at 0.397 µg/mL (≈ 0.569 µM); in data set [3] (72 h), 0.032 µg/mL (≈ 0.0459 µM).

With `CS(=O)(=O)O.O=C1c2cccc3c2c(c(C(F)(F)F)c2ccccc23)C(=O)N1CCCCNCCCN1C(=O)c2cccc3c2c(c(C(F)(F)F)c2ccccc23)C1=O` [Example 45, 4-(3-[9-(Trifluoromethyl)phenanthrene-1,10-dicarboximido]propylamino)-1-[9-(trifluoromethyl)phenanthrene-1,10-dicarboximido]butane Hydromethanesulfonate], the IC50 is 0.3 µg/mL in data set [1] (L1210, 72 h) and 1.05 µg/mL in data set [3] (72 h).

As for `COc1ccc2cc3c4c(cccc4c2c1)C(=O)N([C@H](C)CNCCNC[C@@H](C)N1C(=O)c2cccc4cc([N+](=O)[O-])cc(c24)C1=O)C3=O` [Example 122], the half-maximal inhibitory concentration (IC50) was 0.211 µg/mL (≈ 0.32 µM) in data set [1] (L1210, 72 h) and 0.023 µg/mL (≈ 0.0349 µM) in data set [3] (72 h).

For `O=C1c2cccc3cc([N+](=O)[O-])cc(c23)C(=O)N1CCCCNCCCN1C(=O)c2cccc3c2c(cc2cccnc23)C1=O` [Example 124], the IC50 in data set [1] (L1210 cells, 72 hr, MTT) is 0.011 µg/mL (≈ 0.0183 µM). The same compound gave a solubility in data set [2] of 290 µg/mL (≈ 482 µM).

For the compound `C[C@H](CNCCNC[C@@H](C)N1C(=O)c2cc([N+](=O)[O-])cc3c2c(cc2cccnc23)C1=O)N1C(=O)c2cccc3cc([N+](=O)[O-])cc(c23)C1=O` [Example 123], in data set [1] (L1210 cells, 72 hr, MTT), the IC50 is 0.013 µg/mL (≈ 0.0192 µM). In data set [2], this compound came in with a solubility of 5770 µg/mL (≈ 8540 µM).

As to `COc1ccc2c(c1)cc1c3c(cccc32)C(=O)N(CCCCNCCCN2C(=O)c3cccc4c3c(cc3cc(OC)ccc34)C2=O)C1=O.CS(=O)(=O)O` [Example 54, 4-[3-(7-Methoxyphenanthrene-1,10-dicarboximido)propylamino]-1-(7-methoxyphenanthrene-1,10-dicarboximido)butane Hydromethanesulfonate], the IC50 in data set [1] (L1210, 72 h) was found to be 0.198 µg/mL; in data set [3] (72 h) it was 0.615 µg/mL.
